test: gradient 5% acetonitrile 3 min, to 50% in 2 min, to 85% in 15 min, held 3 min, 100 µL/min; details: column: Zorbax Extend-C18 2.1 x 50 mm; eluents: water / acetonitrile, 0.1% formic acid
Outline: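 Retention times come from adduct peaks that were picked computationally and then checked by hand. The standards, pure and pooled in mixtures of ~100 molecules, were run on a Zorbax Extend-C18 column (2.1 × 50 mm, 1.8 μm) at 100 μL/min with water and acetonitrile, each with 0.1% formic acid. Detection was by quadrupole time-of-flight mass spectrometry in positive and negative ionization mode, with a dead volume of 40 μL and a dwell volume of 900 μL.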

Row | RP-LC retention time [s] | Compound
1 | 780 | COc1cccc(NC(=O)N2CCC3(CC2)NC(=O)c2cc(Cl)ccc2N3C)c1
2 | 611 | Cc1nccn1C1CN(C(=O)CCCc2c[nH]c3ccccc23)C1
3 | 692 | CCOC(=O)N1CCN(c2ncc(C(=O)Nc3ccccc3)c(N)n2)CC1
4 | 910 | O=C(NCCOc1ccccc1)Nc1ccc(OC(F)(F)F)cc1
5 | 1130 | Cc1nn(CC(=O)N2CCC(C)CC2)c(=O)c2c(-n3cccc3)n(-c3ccc(Cl)cc3)nc12
6 | 563 | O=C(c1ccccc1Br)N1CCc2nc[nH]c2C1
7 | 778 | Cn1ccc2ccn(CC(=O)NCc3ccccc3Br)c(=O)c21
8 | 982 | Fc1ccccc1-c1noc(N2CCCCC2)n1
9 | 668 | CCCNC(=O)C1CCCN(c2ccc(SCC(=O)Nc3ccc(F)cc3)nn2)C1 (stereo not given)
10 | 790 | O=C(CN1CCN(Cc2ccc(F)cc2)C1=O)NCc1cccc(F)c1
11 | 1070 | O=C(NCCCc1ccccc1)c1nnc(-c2ccc(S(=O)(=O)N3CCCCC3)cc2)o1
12 | 695 | COc1ccc(C(C)NC(=O)C2CCN(c3cnc4nccnc4c3)CC2)cc1 (stereo not given)
13 | 680 | CC(=O)Nc1nsc(N2CCC(C(=O)N3CCN(c4ccc(F)cc4)CC3)CC2)n1
14 | 782 | COc1ccc(NC(=O)C2CCN(S(=O)(=O)c3ccc4c(c3)CCCC(=O)N4)CC2)cc1Cl
15 | 636 | O=C(O)c1ccc(OCC(=O)C2CC2)cc1
16 | 629 | CCOC(=O)c1[nH]c(C)c(CCC(=O)N2CCCC(C(=O)NCc3ccc(N(C)C)cc3)C2)c1C (stereo not given)
17 | 628 | COCCN1C(=O)c2ccccc2C(C(=O)NCCN2CCOCC2)C1c1ccc(F)cc1 (stereo not given)
18 | 583 | O=C(c1ccc(N2C(=O)CCS2(=O)=O)cc1Cl)N1CCN(c2ccccn2)CC1

Row | RP-LC retention time [s] | Compound
19 | 845 | Cc1ccc(C)c(NC(=O)Cc2csc3nc(-c4ccccc4)cn23)c1
20 | 735 | O=C(Nc1ccc2nc3n(c(=O)c2c1)CCCC3)Nc1ccccc1Br
21 | 696 | O=C(Cc1csc2nc(-c3ccccc3)cn12)NCc1ccco1
22 | 863 | O=C1CCc2cc(S(=O)(=O)NCc3ccccc3Cl)cc3c2N1CCC3
23 | 909 | Cc1ccccc1OCC(=O)N1CCC2(CC1)NC(=O)N(Cc1ccccc1Cl)C2=O
24 | 814 | CN1C(=O)c2cc(C(=O)NCCCc3ccccc3)nn2CC1(C)C(=O)NCc1ccccc1 (stereo not given)
25 | 1090 | Cc1cccc(NC(=O)C2CCN(S(C)(=O)=O)c3cc(Cl)ccc3O2)c1C (stereo not given)
26 | 722 | O=C(Cc1ccccc1Cl)NCC1CCN(C(=O)c2ccccc2F)CC1
27 | 617 | Cc1nc(OC(C)C)cc(N2CCN(C(=O)CCc3ccccc3)CC2)n1
28 | 587 | CCN1CCCn2cc(S(=O)(=O)N3CCN(Cc4ccccc4)CC3)cc2C1=O
29 | 747 | Cc1oc(C2CCN(C(=O)Cc3c(F)cccc3Cl)CC2)nc1C(=O)N(C)C
30 | 896 | Cc1cccc(N2CCN(c3ccc(SCC(=O)Nc4cccc(F)c4)nn3)CC2)c1
31 | 1200 | CC1CCN(S(=O)(=O)c2ccccc2-c2nc(-c3ccccc3)no2)CC1
32 | 679 | O=C(Nc1cccc(-c2nnc3n2CCCC3)c1)c1ccc2c(c1)OCO2
33 | 897 | CCS(=O)(=O)N1CCC(c2noc(-c3ccccc3)n2)CC1
34 | 792 | O=C(c1ccc2ccnc(N3CCN(c4ccc(F)cc4)CC3)c2c1)N1CCCCC1
35 | 858 | CCOc1ccccc1NC(=O)N1CCCC1c1nc(-c2cccc(C)c2)no1 (stereo not given)
36 | 718 | Cc1ccc(S(=O)(=O)N2CCC3(CC2)NCCN=C3NCc2cccc(F)c2)cc1

The remaining lines, values behind:

Row | Compound | RP-LC retention time [s]
37 | Cc1ccc(-c2cn3cccnc3n2)cc1NC(=O)c1ccccc1Br | 682
38 | Cc1cc(C(=O)N2CCC(c3cc(N)on3)CC2)no1 | 625
39 | CCN1C(=O)NC(c2ccccc2C(F)(F)F)C2=C1CN(CCC(=O)NC1CC1)C2=O (stereo not given) | 605
40 | CCOc1ccccc1NC(=O)N1CCc2nc(-c3ccc(OC)cc3)ncc2C1 | 1000
41 | Cc1cc(N2CCCC2)n2nc(CN3CCN(c4cccc(Cl)c4)CC3)nc2n1 | 663
42 | O=C(Nc1cccc(C(F)(F)F)c1)C1CCc2nc(N3CCOCC3)ncc2C1 (stereo not given) | 900
43 | CCCCn1c(=O)c2ccccc2n(Cc2nc(-c3ccc(SC)cc3)no2)c1=O | 1250
44 | CCC(=O)N1CCc2cc(N3CC(C(=O)Nc4cc(C)ccc4OC)CC3=O)ccc21 (stereo not given) | 794
45 | COc1cc(NC(=O)NCCc2cn(C)c3ncccc23)cc(OC)c1 | 657
46 | CN(C)C(=O)Oc1cc(OC(=O)N(C)C)cc(C(O)CNC(C)(C)C)c1 (stereo not given) | 688
47 | COc1ccc(C)cc1NC(=O)CN1C(=O)C(C)(C)c2cc(C)ccc21 | 588
48 | CCOc1ccc(N2CCn3c2nn(Cc2cccc(C(F)(F)F)c2)c(=O)c3=O)cc1 | 915
49 | COC(=O)c1c(NCc2ccc(OC)cc2)c2cccc(Cl)c2[nH]c1=O | 788
50 | COc1ccc(-c2ccc(=O)n(Cc3nc(-c4ccc(Cl)cc4)no3)n2)cc1 | 1070
51 | CCN(Cc1ccccc1)S(=O)(=O)c1ccc2c(c1)CCCC(=O)N2 | 856
52 | COc1ccc2[nH]c(C)c(CCNS(=O)(=O)c3cc(OC)c(C)cc3OC)c2c1 | 870
53 | Cc1ccccc1-c1nnc(COc2ccc(NC(=O)Cc3cccs3)cc2)o1 | 976
54 | O=C(CSc1ccc(-c2ccc(-n3ccnc3)cc2)nn1)NCc1ccco1 | 554
55 | c1ccc(-c2n[nH]c(C3CCCN3)n2)cc1 (stereo not given) | 546
56 | CC(C)CCNC(=O)c1nn(-c2ccc(F)cc2)nc1CO | 984
57 | CCNC(=O)C[C@@H]1N=C(c2ccc(Cl)cc2)c2cc(OC)ccc2-n2c(C)nnc21 | 797
58 | O=C(Cn1c(=O)c2cc(-c3cccs3)nn2c2ncccc21)Nc1ccc(F)cc1 | 870
59 | COc1ccc(C2(C(=O)N3CCC4(CC3)NCCc3c4[nH]c4ccccc34)CC2)cc1 | 681
60 | COc1ccc(-c2nc(C3CC(=O)N(c4ccc(C)cc4)C3)no2)cn1 (stereo not given) | 946
61 | COc1ccc(N2CC(c3noc(-c4cc(F)cc(F)c4)n3)CC2=O)cc1OC (stereo not given) | 899
62 | Cc1cc(N(C)C)nc(N2CCN(S(=O)(=O)c3cc(C)c(C)cc3C)CC2)n1 | 793
63 | Cc1ccc(-c2nc3ccccc3[nH]2)cc1NC(=O)c1ccco1 | 625

Row | Compound | RP-LC retention time [s]
64 | Cc1ccc(-c2noc(Cn3nc(-c4ccccc4F)ccc3=O)n2)cc1 | 1050
65 | CSc1cccc(NC(=O)N2CCN(Cc3nc4cccnc4n3-c3ccc(F)cc3)CC2)c1 | 711
66 | CCc1ccc(S(=O)(=O)N2CC=C(c3cn(C)c4ncccc34)CC2)cc1 | 1100
67 | CCCCS(=O)(=O)N1CCC(C2CCN(C(=O)NC)CC2)C1 (stereo not given) | 682
68 | COCCN1C(=O)CCc2cc(NC(=O)COc3cccc(C)c3)ccc21 | 799
69 | CCOC(=O)c1noc2ncnc(N3CCCCCC3)c12 | 954
70 | Cc1noc(C)c1CN1CCC(NC(=O)c2ccc(F)cc2F)C1 (stereo not given) | 580
71 | O=C(Nc1nc(-c2ccncc2)cs1)c1ccc(NS(=O)(=O)c2ccccc2)cc1 | 589
72 | CCNc1cc(N2CCCC(CCC(=O)NC(C)c3c(C)nn(C)c3C)C2)ncn1 (stereo not given) | 582
73 | CNC(=O)c1cc(N(C)C)nc2c(C)cccc12 | 557
74 | COc1ccc(-c2nnc(-c3ccc(Cl)c(S(=O)(=O)N(C)C)c3)o2)cc1 | 913
75 | COCc1c(C(=O)N2CCC3(CCC3O)CC2)noc1C (stereo not given) | 618
76 | Cc1cc2c(cc3n2CC(C)(C(=O)NC2CCCCC2)N(Cc2cccnc2)C3=O)o1 (stereo not given) | 658
77 | COc1ccc(NC(=O)CN2C(=O)CCc3cc(Br)ccc32)c(OC)c1 | 900
78 | CCn1nccc1C(=O)NCCn1c(C)cnc1C1CCC1 | 574
79 | CCC(C)NS(=O)(=O)c1ccc(-c2c(C)noc2C)cc1 (stereo not given) | 936
80 | C=CCn1c(=O)c2ccccc2n(Cc2nc(-c3cccc(C)c3)no2)c1=O | 1080
81 | Cc1cc(CNC(=O)c2cc3ccccc3o2)c(C)o1 | 852
82 | COc1ccc(S(=O)(=O)N2CCN(c3cc(C)nc(NC4CCCCC4)n3)CC2)cc1Cl | 851
83 | Cc1noc(C)c1-c1ccc(S(=O)(=O)Nc2cccc(Br)c2)cc1 | 1000
84 | Cc1cc(C2CCCN2C(=O)Nc2ccccc2C)no1 (stereo not given) | 757
85 | CSc1ccc(-c2nc3cnccn3c2Nc2ccc3c(c2)OCO3)cc1 | 890
86 | CCOc1ccc(-n2ccnc(NC(=O)Nc3ccc(F)cc3)c2=O)cc1 | 985
87 | Fc1ccc(-c2noc(Cc3nnc(-c4ccc(Cl)cc4)o3)n2)cc1 | 1070
88 | CCN1CCCn2cc(S(=O)(=O)Nc3ccc(F)c(F)c3)cc2C1=O | 768
89 | Cc1ccn2c(NC(=O)c3ccc(C)c(C)c3)c(-c3ccccc3)nc2c1 | 709
90 | Cn1ncc2c3ccccc3n(CC(=O)NCCCN3CCOCC3)c2c1=O | 582

— the METLIN SMRT retention time set (Domingo-Almenara et al. 2019)
